Source: patent US20060287251A1, “Combination therapy for glycaemic control” (priority 2003, published 2006)
pIC50: −log10 of the molar value.

Experiments:
[1] = biological target: T1, Prolidase from porcine kidney (Sus scrofa, UniProt A0A5G2QQV1); experiment: Cross reacting enzymes: prolidase; format: biochemical; details: substrate Ile-Pro-OH
T1 construct: Prolidase from porcine kidney (ICN Biomedicals, Eschwege, Germany); purchased ICN Biomedicals, Eschwege, Germany; host or cells: porcine kidney
T1 sequence (A0A5G2QQV1 1-463): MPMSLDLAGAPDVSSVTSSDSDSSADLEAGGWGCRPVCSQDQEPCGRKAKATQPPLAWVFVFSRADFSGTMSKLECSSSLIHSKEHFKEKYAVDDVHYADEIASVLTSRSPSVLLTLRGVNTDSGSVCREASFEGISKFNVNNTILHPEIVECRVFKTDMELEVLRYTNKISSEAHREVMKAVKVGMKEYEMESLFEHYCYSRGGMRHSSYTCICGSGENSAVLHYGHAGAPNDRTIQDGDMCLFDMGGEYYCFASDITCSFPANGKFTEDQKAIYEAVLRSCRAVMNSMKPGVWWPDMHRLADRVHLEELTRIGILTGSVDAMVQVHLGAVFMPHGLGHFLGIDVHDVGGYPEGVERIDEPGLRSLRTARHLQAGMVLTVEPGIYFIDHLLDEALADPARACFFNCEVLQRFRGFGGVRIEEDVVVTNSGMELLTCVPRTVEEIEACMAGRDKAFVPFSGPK
Procedure: (§1) Glutaminyl pyrrolidine or glutaminyl thiazolidine were tested for their cross reacting potency against dipeptidyl peptidase I, prolyl oligopeptidase and prolidase.
Prolidase (EC 3.4.13.9) was first described by Bergmann & Fruton (Bergmann, M. & Fruton, J. S., 1937, J Biol. Chem. 189-202). Prolidase releases the N-terminal amino acid from Xaa-Pro dipeptides and has a pH optimum between 6 and 9. Prolidase from porcine kidney (ICN Biomedicals, Eschwege, Germany). was solved (1 mg/mL) in assay buffer (20 mM NH4(CH3COO)2, 3 mM MnCl2, pH 7.6). In order to get a fully active enzyme the solution was incubated for 60 min at room temperature. 450 μL glutaminyl pyrrolidine or glutaminyl thiazolidine in an concentration range of 5*10^−3 M-5*10^−7 M were admixed with 500 μL buffer solution (20 mM NH4(CH3COO)2, pH 7.6) and 250 μL Ile-Pro-OH (0.5 mM in the assay mixture). The assay mixture was pre-incubated at 30° C. for 5 min After pre-incubation, 75 μL Prolidase (1:10 diluted in assay buffer) were added and measurement was performed at 30° C. and λ=220 nm for 20 min using a UV/Vis photometer, UVW (Thermo Spectronic, Cambridge, UK). The IC50-values were calculated using Graphit 4.0.15 (Erithacus Software, Ltd., UK).

[2] = biological target: T2, recombinant human prolyl oligopeptidase (Homo sapiens, UniProt P48147); experiment: Cross reacting enzymes: prolyl oligopeptidase; format: biochemical; details: concentration range 1*10^−4 M-5*10^−8 M
T2 construct: made in house; host or cells: E. coli
T2 sequence (P48147 1-710): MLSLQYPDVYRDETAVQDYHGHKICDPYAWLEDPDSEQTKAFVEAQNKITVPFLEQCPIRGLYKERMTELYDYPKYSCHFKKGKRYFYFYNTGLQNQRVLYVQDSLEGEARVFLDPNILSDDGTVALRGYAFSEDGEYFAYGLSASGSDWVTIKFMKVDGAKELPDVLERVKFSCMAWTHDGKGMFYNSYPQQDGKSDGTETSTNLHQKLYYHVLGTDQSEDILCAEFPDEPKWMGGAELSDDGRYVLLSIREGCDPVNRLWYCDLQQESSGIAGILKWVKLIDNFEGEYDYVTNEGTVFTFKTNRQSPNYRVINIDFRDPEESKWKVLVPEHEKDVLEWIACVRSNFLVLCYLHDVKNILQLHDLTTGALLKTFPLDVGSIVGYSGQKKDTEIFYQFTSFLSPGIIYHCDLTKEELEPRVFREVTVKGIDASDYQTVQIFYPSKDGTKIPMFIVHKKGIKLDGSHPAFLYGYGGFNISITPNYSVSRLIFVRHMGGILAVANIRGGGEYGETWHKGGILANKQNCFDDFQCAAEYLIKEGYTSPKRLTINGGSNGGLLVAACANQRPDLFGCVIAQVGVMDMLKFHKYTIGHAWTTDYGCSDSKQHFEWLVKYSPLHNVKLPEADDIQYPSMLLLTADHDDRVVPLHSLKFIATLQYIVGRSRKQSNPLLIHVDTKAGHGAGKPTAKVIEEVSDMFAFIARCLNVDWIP
Procedure: as §1
Prolyl oligopeptidase (EC 3.4.21.26) is a serine type endoprotease which cleaves off peptides at the N-terminal part of the Xaa-Pro bond (Walter, R., Shlank, H., Glass, J. D., Schwartz, I. L. & Kerenyi, T. D., 1971, Science, 173, 827-829). Substrates are peptides with a molecular weight up to 3000 Da. The enzyme used was a recombinant human prolyl oligopeptidase. Recombinant expression was performed in E. coli under standard conditions as described elsewhere in the state of the art. 100 μL glutaminyl pyrrolidine or glutaminyl thiazolidine in an concentration range of 1*10^−4 M-5*10^−8 M were admixed with 100 μL buffer solution (40 mM HEPES, pH 7.6, 0.015% Brij, 1 mM DTT) and 20 μL POP solution. The assay mixture was pre-incubated at 30° C. for 15 min After pre-incubation, 50 μL glycylprolylprolyl-4-nitroaniline solution (0.29 mM) were added and measurement of yellow color development due to 4-nitroaniline release was performed at 30° C. and λ=405 nm for 10 min using a plate reader (sunrise, Tecan, Crailsheim, Germany). The IC 50-values were calculated using Graphit 4.0.15 (Erithacus Software, Ltd., UK). No inhibition of POP activity by glutaminyl pyrrolidine or glutaminyl thiazolidine was found.

| Compound | pIC50 [1] | inhibition of POP activity [2] |
| --- | --- | --- |
| NC(=O)CC[C@H](N)C(=O)N1CCCC1 [glutaminyl pyrrolidine] | 3.47 | No inhibition |
| NC(=O)CC[C@H](N)C(=O)N1CCSC1 [glutaminyl thiazolidine] | < 2.52 | No inhibition |
